These antisense oligonucleotides have a phosphorothioate backbone; sugars and methylation of C are not fully specified.
These sequences were tested against AKT1. Settings: ASO.
Further: test concentration or dose not given here.

| Sequence | remaining target (mRNA or protein) (fraction of control) |
| --- | --- |
| AAAATACTAAAGTTGAAT | 0.75 |
| AAAGTTGAATGTTGTAAA | 0.9 |
| AAGTGCTACCGTGGAGAG | 0.43 |
| ACAGCGTGGCTTCTCTCA | 0.88 |
| ACGTTCTTCTCCGAGTGC | 0.7 |
| AGCCAATGAAGGTGCCAT | 0.33 |
| AGTCTGGATGGCGGTTGT | 0.51 |
| ATTTGAACAACATAATAC | 0.89 |
| CAACCCTCCTTCACAATA | 0.76 |
| CACAGAGAAGTTGTTGAG | 0.78 |
| CAGGGAGTCAGGGAGGGC | 0.87 |
| CATAATACACAATAACAA | 0.61 |
| CCCAGAGAGATGACAGAT | 0.54 |
| CCCTGTGCCCTGTCCCAG | 0.45 |
| CCGAAAGTGCCCTTGCCC | 0.44 |
| CCTAAGCCCCTGGTGACA | 0.85 |
| CCTGAGTTGTCACTGGGT | 0.51 |
| CGAAAAGGTCAAGTGCTA | 0.59 |
| CGGTCCTCGGAGAACACA | ≥ 1 |
| CTCGCTGTCCACACACTC | 0.39 |
| CTGGCTGACAGAGTGAGG | 0.41 |
| CTTTGACTTCTTTGACCC | 0.32 |
| GATAGTTTTCTTCCCTAC | ≥ 1 |
| GCCACGATGACTTCCTTC | 0.4 |
| GCCGTGAACTCCTCATCA | 0.44 |
| GCCTCTCCATCCCTCCAA | 0.24 |
| GCGGCTGGCTGACAGAGT | 0.39 |
| GCTGCTGTGTGCCTGCCA | 0.62 |
| GGAGAACAAACTGGATGA | ≥ 1 |

The sequences below were run against PYGL. Settings: ASO.

| Sequence | remaining target (mRNA or protein) (fraction of control) |
| --- | --- |
| ACAGTTCAAGAGCTGTCGCT | 0.39 |
| ACGGGCCAGCGCTCCAGGGC | 0.47 |
| AGGATGGGTTGATCTTCACT | 0.39 |
| AGTATTCTTTTGCCTCGTAC | 0.21 |
| ATCACCCAGGAAGCTGTGGA | 0.31 |
| ATCAGAGACATCCTTCTCAG | 0.33 |
| ATCTGTGGCTGGAATGACTT | 0.79 |
| ATGCTCATGCCAAAGATGAA | 0.98 |
| ATGCTTCTGATTTATCTCAT | 0.49 |
| ATTGTCATTGGGATAGAGGA | 0.49 |
| ATTTTGCAGACCGAGGTTGA | 0.31 |
| CACAGCATGGGAACCGACAA | 0.15 |
| CAGCGGTTCGCCCATGGCTG | 0.98 |
| CAGCTTTACCACCAATGATA | 0.29 |
| CCACATTGGCCCCATCCATG | 0.19 |
| CCCATGTAAAATTCCAGAGA | 0.44 |
| CCCCATTCCCAGAGATACTC | 0.32 |
| CCGCCCCGCCGCGCCAGGAG | ≥ 1 |
| CGGGCTGCGCAGAGAGCTGG | 0.87 |
| CTCTTCTATATCCAATCCAA | 0.63 |

| Sequence | remaining target (mRNA or protein) (fraction of control) |
| --- | --- |
| CTGCAAGTCCTGGGTTGCAG | 0.49 |
| CTTGACCAGCGTGAAGTGCA | 0.48 |
| GAAGTCCTTGAATACTTTAG | 0.4 |
| GCAGGCAGCAAGTCTCCCAA | 0.29 |
| GCCGTATCCATAGGCTGCAA | ≥ 1 |
| GCGCGAAGTAGTAGTCGCGG | 0.8 |
| GGGCGGGACTTCTCCCAAGG | 0.79 |
| GGTGTTGACAGTGTTATTCA | 0.56 |
| TACCTGCCATCCATCTCGGA | 0.15 |
| TCATATTGCCTGTCCCCGAG | 0.18 |
| TCATGATAAAATAGCATGTT | ≥ 1 |
| TCCAACATTAAAGTCTCTGA | 0.62 |
| TCCAGCGCCCCACCAGGTGG | 0.44 |
| TCCCGGTGTTGGTGTGTTCT | 0.63 |
| TCTGTCAGCGGTTCGCCCAT | 0.69 |
| TGCCACGTTCTCCACGCCCA | 0.18 |
| TGGAGCCAAACTTGGAGGCT | 0.32 |
| TTCCAACCATAGGGTCATTG | 0.27 |
| TTCTGGTTGAGCTCCCATGC | 0.52 |
| TTGTCAATTTGATCAATGAC | 0.62 |

The sequences below were run against ITGB3. Settings: ASO.

| Sequence | remaining target (mRNA or protein) (fraction of control) |
| --- | --- |
| AGAGATTGACTACATTTT | 0.93 |
| AGATGCTGGTACATCCCC | 0.4 |
| AGCTGCTGAGAGTCAGGC | 0.22 |
| AGCTTCTCAGTCATCAGC | 0.28 |
| AGGCATCTGGGCAGGTGG | 0.9 |
| AGTCCTCCTCTGAGCACT | 0.55 |
| ATGACTGCTTATCATTAA | ≥ 1 |
| CAATAAGGCAAATCTGAA | 0.77 |
| CACATTGACCACAGAGGC | 0.74 |
| CATTCCTCCAGCCAATCT | 0.6 |
| CCACGGGCTTTATGGTAA | 0.63 |
| CTTCCGTCCAATGCTATA | 0.96 |
| CTTTAGAACGGATTTTCC | ≥ 1 |
| GACTCCTGCAATCCTGGC | 0.53 |
| GCATCCTTGCCAGTGTCC | 0.47 |
| GCATCTCGTCCGCCTCCC | 0.44 |
| GCCAGCACAGTCACCCAG | ≥ 1 |
| GCCCATTGCTGGACATGC | ≥ 1 |
| GCCCCGAAGCCAATCCGC | ≥ 1 |
| GTGATGAGGAGTTTCCAG | 0.98 |
| GTTCTGGATGCTCCACAG | 0.55 |
| TCAAACTTCTTACACTCC | 0.54 |
| TCACCCTCAAGCTAAGCA | ≥ 1 |
| TCACCGTGTCTCCAATCT | 0.53 |
| TCAGCTTGGGCCTGGCAG | 0.6 |
| TCCTTCGGCCTGAGGGAG | 0.57 |
| TCTCACTGAGGTAATGAA | 0.66 |
| TGGATGGAGAAATTCTTC | 0.64 |
| TGTCACTACCAACATGAC | 0.32 |
| TGTCCCATTTTGCTCTGG | 0.53 |

Each sequence was assayed against GNAI2. Settings: ASO.

| Sequence | remaining target (mRNA or protein) (fraction of control) |
| --- | --- |
| AAAGAGAGGAAAGAGGAG | 0.99 |
| AACATTTGGACTTGGCTG | 0.76 |
| ACACAGACAAGACAATGT | ≥ 1 |
| ACATCTTGAAGTGTAGGT | 0.78 |
| ACCAGCATCTCAGACAAG | ≥ 1 |
| AGACAAGGGCAGGCTTCA | 0.37 |
| AGCCCATCCCGCCGTCCG | 0.91 |
| AGCTGCCTGGCGTCGTCC | 0.34 |
| AGCTGGTATTCCCTTGAG | 0.55 |
| AGGAAGAGGATGATGGAC | ≥ 1 |
| AGGCTCCCTGTAAACATT | 0.77 |
| AGGTCGTTCAGGTAGTAG | 0.64 |
| AGTCCTTCAGGTTGTTCT | 0.54 |
| ATGGTGCTCTTCCCTGAC | 0.52 |
| CAACAGCAGCAACTTCAC | 0.89 |
| CCCCTCCCTCATACACAG | 0.62 |
| CCCGCCCGACCCACCCGA | 0.62 |
| CCCTCCAGACGCAGCCTT | 0.47 |
| CCTCAAACTTACTCTGGA | 0.85 |
| CGCAGAAGATGATGGCTG | 0.67 |

| Sequence | remaining target (mRNA or protein) (fraction of control) |
| --- | --- |
| CGCCCTCAAAGCAGTGGA | 0.61 |
| CGGACAGGTCATCAGGGA | 0.59 |
| CGTTCTTGGTGTCGGTGG | 0.39 |
| CTGCTTGACGATGGTGCT | 0.6 |
| CTGTGACGCCCTCAAAGC | 0.51 |
| CTTCCCTGACTCCCCAGC | 0.3 |
| CTTGAAGGTGAAGTGTGT | 0.74 |
| GAACATAAGCCAGAAGGG | 0.94 |
| GCCCCGCTGCCCCTCAGA | 0.65 |
| GCGAACCCCTCCCCTACG | 0.71 |
| GCGCTTATTCAGGTCCTC | 0.33 |
| GGAAAGAGGAGAAAAGCG | 0.65 |
| GGCAGGCTTCAAACAGGG | 0.52 |
| GGCCTGTGCGAACCCCTC | 0.96 |
| GGGAAGCAGATGGTCAGG | 0.86 |
| GGGTCCGTAGCACATCTT | 0.47 |
| GGTTCATCTCCTCGTCCT | 0.64 |
| TGAAGTGTGTCTCCACGA | 0.61 |
| TGAGCAGGTGGACTGTGG | 0.31 |
| TTCAGGTCCTCAAACTTA | 0.38 |
